Measured values from patent publication US9247759B2, “Identification of human T2R receptors that respond to bitter compounds that elicit the bitter taste in compositions, and the use thereof in assays to identify compounds that inhibit (block) bitter taste in compositions and use thereof” (SENOMYX, INC., priority 2007, dated 2016).
pIC50: −log10 of the molar value. Like-named read-outs stand apart in the source and are kept apart here.

Tests used:
hT2R14 [1] = molecular target: T1, hT2R14 (Homo sapiens (Human), UniProt Q9NYV8); experiment: hT2R panel inhibition, transient HEK293 G16g44, agonist Aristolochic Acid 2 μM; assay type: cell-based; conditions: HEK293, compound at 25 μM
Method in brief: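 Agonist challenge was at EC80, with 0.5 mM andrographolide on hT2R8 and 2 μM aristolochic acid on hT2R14. Inhibition was measured in functional assays in HEK293 cells that stably carry the promiscuous G protein G16g44 and were transiently transfected with the individual receptor.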

hT2R61 = hT2R61 (Homo sapiens (Human), UniProt P59537); experiment: hT2R panel inhibition, transient HEK293 G16g44, agonist Aristolochic Acid 25 nM; assay type: cell-based; conditions: HEK293, compound at 25 μM
Method in brief: (§1)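 One receptor per transfection, EC80 agonist, activity drop with compound = inhibition.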

hT2R64 = hT2R64 (Homo sapiens (Human), UniProt P59538); experiment: hT2R panel inhibition, transient HEK293 G16g44, agonist Aristolochic Acid 1 μM; assay type: cell-based; conditions: HEK293, compound at 25 μM
Method in brief: as §1

hT2R71 = hT2R71 (Homo sapiens (Human), UniProt P59536); experiment: hT2R panel inhibition, transient HEK293 G16g44, agonist Picric Acid 10 μM; assay type: cell-based; conditions: HEK293, compound at 25 μM; receptor activated to EC80 with the corresponding agonist; read-out: screening result against bitter receptor 71
Method in brief: as §1

hT2R3 = hT2R3 (Homo sapiens (Human), UniProt Q9NYW6); experiment: hT2R panel inhibition, transient HEK293 G16g44, agonist Chloroquine pH6.5 50 μM; assay type: cell-based; conditions: HEK293, compound at 25 μM
Method in brief: as §1

hT2R54 = experiment: hT2R panel inhibition, transient HEK293 G16g44, agonist Ranitidine 5 mM; assay type: cell-based, human; conditions: compound at 25 μM; receptor activated to EC80 with the corresponding agonist
Method in brief: as §1

hT2R10 = hT2R10 (Homo sapiens (Human), UniProt Q9NYW0); experiment: hT2R panel inhibition, transient HEK293 G16g44, agonist Strychnine 50 μM; assay type: cell-based; conditions: HEK293, read-out: screening result against bitter receptor 10, compound at 25 μM; receptor activated to EC80 with the corresponding agonist
hT2R16 = hT2R16 (Homo sapiens (Human), UniProt Q9NYV7); experiment: hT2R panel inhibition, transient HEK293 G16g44, agonist Salicin 1 mM; assay type: cell-based; conditions: HEK293, compound at 25 μM; receptor activated to EC80 with the corresponding agonist; read-out: screening result against bitter receptor 16
Method in brief: as §1

hT2R63 = experiment: hT2R panel inhibition, transient HEK293 G16g44, agonist Caffeine 1 mM or Andrographolide 100 μM; assay type: cell-based, human; conditions: compound at 25 μM; receptor activated to EC80 with the corresponding agonist
Method in brief: as §1

hT2R55 = experiment: hT2R panel inhibition, transient HEK293 G16g44, agonist Cinchonine 150 μM; assay type: cell-based, human; conditions: compound at 25 μM; receptor activated to EC80 with the corresponding agonist
Method in brief: as §1

hT2R13 = hT2R13 (Homo sapiens (Human), UniProt Q9NYV9); experiment: hT2R panel inhibition, transient HEK293 G16g44, agonist Oxyphenonium 1 mM; assay type: cell-based; conditions: HEK293, compound at 25 μM
Method: (§2) Specifically, in order to evaluate the inhibitory selectivity of the Compound C compound, this compound was tested against 22 human T2Rs which were deorphaned by Senomyx. These receptors and the bitter ligands that activate these human T2Rs are reported in earlier patent applications which are incorporated by reference herein. These 22 human T2Rs are hT2R1, 3, 4, 5, 7, 8, 9, 10, 13, 14, 16, 44, 51, 54, 55, 61, 63, 64, 65, 67, 71 and 75. The amino acid and nucleic acid sequences of all of these T2Rs may be found in these earlier patent applications. These human T2Rs were each individually transiently transfected into HEK293 cells that stably express the promiscuous G protein G16g44 and functional assays were effected using these receptors as disclosed in these same patent applications. […] The ligands were used at EC80 concentration levels. The list of bitter ligands utilized and the tested ligand concentrations are contained in Table 5 of this example.
(§3) Relating to the foregoing, FIG. 5 contains experimental results wherein Compound C was tested with different agonist compounds. The inhibition activity is represented by the reduction of receptor activity in the presence of Compound C. […] These 13 hT2Rs are hT2R3, 7, 10, 14, 16, 44, 51, 55, 61, 63, 64, 65, and 71.

hT2R5 = hT2R5 (Homo sapiens (Human), UniProt Q9NYW4); experiment: hT2R panel inhibition, transient HEK293 G16g44, agonist Picoline 10 mM; assay type: cell-based; conditions: HEK293, compound at 25 μM
Method in brief: as §1

hT2R44 = experiment: hT2R panel inhibition, transient HEK293 G16g44, agonist Denatonium 0.5 μM; assay type: cell-based, human; conditions: compound at 25 μM; for screening result against bitter receptor 44: receptor activated to EC80 with the corresponding agonist
Method in brief: as §1

hT2R14 [2] = molecular target: T1, hT2R14; experiment: hT2R14 antagonist high-throughput FLIPR assay, stable cell line with G16g44, agonist aristolochic acid; assay type: cell-based
Method in brief: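 Compounds were co-applied with 3 μM aristolochic acid, a dose set to reach 70-80% of maximal hT2R14 activation. Read-out was FLIPR fluorescence in a stable HEK293 line co-expressing hT2R14 and G16g44.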

hT2R7 = hT2R7 (Homo sapiens (Human), UniProt Q9NYW3); experiment: hT2R panel inhibition, transient HEK293 G16g44, agonist Chloroquine pH6.5 10 mM; assay type: cell-based; conditions: HEK293, compound at 25 μM
Method in brief: as §1

hT2R4 = hT2R4 (Homo sapiens (Human), UniProt Q9NYW5); experiment: hT2R panel inhibition, transient HEK293 G16g44, agonist Chloroquine pH6.5 5 mM; assay type: cell-based; conditions: HEK293, compound at 25 μM; receptor activated to EC80 with the corresponding agonist; class symbols; read-out: screening result against bitter receptor 4
Method in brief: as §1

hT2R67 = experiment: hT2R panel inhibition, transient HEK293 G16g44, agonist Andrographolide 5 μM; assay type: cell-based, human; conditions: compound at 25 μM; receptor activated to EC80 with the corresponding agonist
Method in brief: as §1

hT2R9 = hT2R9 (Homo sapiens (Human), UniProt Q9NYW1); experiment: hT2R panel inhibition, transient HEK293 G16g44, agonist Ofloxacin 1 mM; assay type: cell-based; conditions: HEK293, compound at 25 μM; receptor activated to EC80 with the corresponding agonist; read-out: screening result against bitter receptor 9
Method: as §2, §3

hT2R65 = experiment: hT2R panel inhibition, transient HEK293 G16g44, agonist Oleuropein 1 mM; assay type: cell-based, human; conditions: compound at 25 μM; receptor activated to EC80 with the corresponding agonist
Method in brief: as §1

hT2R51 = hT2R51 (Homo sapiens (Human), UniProt P59533); experiment: hT2R panel inhibition, transient HEK293 G16g44, agonist Prop 2.5 μM; assay type: cell-based; conditions: HEK293, compound at 25 μM; receptor activated to EC80 with the corresponding agonist; read-out: screening result against bitter receptor 51
Method in brief: as §1

hT2R75 = hT2R75 (Homo sapiens (Human), UniProt P59540); experiment: hT2R panel inhibition, transient HEK293 G16g44, agonist Strychnine 1 μM; assay type: cell-based; conditions: HEK293, read-out: screening result against bitter receptor 75, compound at 25 μM; receptor activated to EC80 with the corresponding agonist
[3] = receptor activated to EC80 with the corresponding agonist, read-out: screening result against bitter receptor 14
[4] = receptor activated to EC80 with the corresponding agonist, read-out: screening result against bitter receptor 61
[5] = receptor activated to EC80 with the corresponding agonist, read-out: screening result against bitter receptor 64
[6] = receptor activated to EC80 with the corresponding agonist, read-out: screening result against bitter receptor 3
[7] = receptor activated to EC80 with the corresponding agonist, read-out: screening result against bitter receptor 5

Sequence of hT2R5 (Q9NYW4 whole entry): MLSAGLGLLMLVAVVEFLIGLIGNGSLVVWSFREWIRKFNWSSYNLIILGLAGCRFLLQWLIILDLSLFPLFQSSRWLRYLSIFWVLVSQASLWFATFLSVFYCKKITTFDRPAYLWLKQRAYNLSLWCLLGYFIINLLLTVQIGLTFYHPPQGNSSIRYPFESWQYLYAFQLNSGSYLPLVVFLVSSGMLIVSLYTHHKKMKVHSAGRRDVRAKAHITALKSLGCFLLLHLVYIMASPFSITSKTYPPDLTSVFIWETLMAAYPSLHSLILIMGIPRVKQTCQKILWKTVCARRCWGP
Sequence of hT2R3 (Q9NYW6 whole entry): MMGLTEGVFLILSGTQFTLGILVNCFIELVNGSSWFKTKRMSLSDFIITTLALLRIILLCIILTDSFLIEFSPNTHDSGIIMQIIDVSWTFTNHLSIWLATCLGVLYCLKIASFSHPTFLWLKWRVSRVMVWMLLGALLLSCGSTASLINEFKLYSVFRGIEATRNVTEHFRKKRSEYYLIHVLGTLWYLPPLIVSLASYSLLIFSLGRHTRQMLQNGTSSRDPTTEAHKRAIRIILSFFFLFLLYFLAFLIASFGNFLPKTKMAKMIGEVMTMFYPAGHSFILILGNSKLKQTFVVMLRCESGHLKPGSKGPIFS
T1 sequence (Q9NYV8 whole entry): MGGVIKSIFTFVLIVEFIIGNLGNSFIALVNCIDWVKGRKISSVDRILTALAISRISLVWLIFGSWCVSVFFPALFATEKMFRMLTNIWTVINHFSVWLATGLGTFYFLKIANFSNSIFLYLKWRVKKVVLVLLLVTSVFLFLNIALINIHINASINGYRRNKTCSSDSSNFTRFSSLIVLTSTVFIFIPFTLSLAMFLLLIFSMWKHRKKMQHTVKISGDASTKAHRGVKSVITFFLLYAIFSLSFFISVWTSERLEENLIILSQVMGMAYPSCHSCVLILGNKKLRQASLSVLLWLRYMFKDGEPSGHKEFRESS
Sequence of hT2R61 (P59537 whole entry): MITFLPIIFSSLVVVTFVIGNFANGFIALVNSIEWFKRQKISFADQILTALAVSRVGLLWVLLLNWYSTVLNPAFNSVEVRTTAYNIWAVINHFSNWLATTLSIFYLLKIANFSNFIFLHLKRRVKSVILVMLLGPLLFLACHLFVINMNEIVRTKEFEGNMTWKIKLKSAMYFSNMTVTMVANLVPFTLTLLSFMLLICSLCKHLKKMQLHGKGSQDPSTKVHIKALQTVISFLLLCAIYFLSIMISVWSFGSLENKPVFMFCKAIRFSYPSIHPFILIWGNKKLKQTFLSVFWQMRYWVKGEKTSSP
Sequence of hT2R64 (P59538 whole entry): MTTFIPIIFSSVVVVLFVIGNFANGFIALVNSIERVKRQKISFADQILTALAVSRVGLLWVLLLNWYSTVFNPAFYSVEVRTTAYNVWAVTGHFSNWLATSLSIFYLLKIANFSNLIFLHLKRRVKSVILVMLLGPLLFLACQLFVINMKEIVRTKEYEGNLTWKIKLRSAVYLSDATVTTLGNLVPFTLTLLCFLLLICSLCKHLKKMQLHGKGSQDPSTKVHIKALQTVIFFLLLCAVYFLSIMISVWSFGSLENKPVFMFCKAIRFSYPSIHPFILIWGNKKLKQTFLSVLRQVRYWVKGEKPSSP
Sequence of hT2R71 (P59536 whole entry): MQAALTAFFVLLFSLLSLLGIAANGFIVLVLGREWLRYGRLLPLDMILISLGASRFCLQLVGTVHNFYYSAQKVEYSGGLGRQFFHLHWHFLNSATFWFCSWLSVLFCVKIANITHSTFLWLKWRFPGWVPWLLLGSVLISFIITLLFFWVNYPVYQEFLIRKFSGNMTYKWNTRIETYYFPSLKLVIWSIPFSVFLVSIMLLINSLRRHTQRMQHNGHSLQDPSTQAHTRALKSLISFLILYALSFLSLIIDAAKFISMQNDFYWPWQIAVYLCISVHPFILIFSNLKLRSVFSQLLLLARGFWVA
Sequence of hT2R7 (Q9NYW3 whole entry): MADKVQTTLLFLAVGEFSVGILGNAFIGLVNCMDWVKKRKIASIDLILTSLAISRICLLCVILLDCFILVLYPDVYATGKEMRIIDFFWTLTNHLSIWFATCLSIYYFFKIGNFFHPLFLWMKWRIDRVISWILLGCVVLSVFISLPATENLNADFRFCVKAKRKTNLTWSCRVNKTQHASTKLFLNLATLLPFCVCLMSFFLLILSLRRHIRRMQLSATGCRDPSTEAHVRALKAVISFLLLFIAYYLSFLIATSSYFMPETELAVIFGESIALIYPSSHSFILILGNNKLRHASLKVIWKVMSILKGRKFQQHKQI
Sequence of hT2R16 (Q9NYV7 whole entry): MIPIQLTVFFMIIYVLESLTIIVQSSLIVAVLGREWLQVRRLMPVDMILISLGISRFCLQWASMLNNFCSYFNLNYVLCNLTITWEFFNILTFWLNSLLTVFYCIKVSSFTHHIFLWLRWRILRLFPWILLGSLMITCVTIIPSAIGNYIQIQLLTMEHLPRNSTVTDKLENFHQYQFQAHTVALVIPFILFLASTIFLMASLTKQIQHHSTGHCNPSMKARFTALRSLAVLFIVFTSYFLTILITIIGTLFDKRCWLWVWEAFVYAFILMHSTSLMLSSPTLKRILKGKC
Sequence of hT2R10 (Q9NYW0 whole entry): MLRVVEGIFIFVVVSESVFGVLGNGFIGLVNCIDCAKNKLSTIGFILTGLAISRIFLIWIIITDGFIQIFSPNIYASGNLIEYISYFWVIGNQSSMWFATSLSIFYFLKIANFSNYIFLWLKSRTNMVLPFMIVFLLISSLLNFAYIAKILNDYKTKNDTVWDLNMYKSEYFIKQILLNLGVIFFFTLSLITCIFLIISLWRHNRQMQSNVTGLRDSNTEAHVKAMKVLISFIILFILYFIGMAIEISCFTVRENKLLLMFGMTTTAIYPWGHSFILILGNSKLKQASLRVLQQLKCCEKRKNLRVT
Sequence of hT2R13 (Q9NYV9 whole entry): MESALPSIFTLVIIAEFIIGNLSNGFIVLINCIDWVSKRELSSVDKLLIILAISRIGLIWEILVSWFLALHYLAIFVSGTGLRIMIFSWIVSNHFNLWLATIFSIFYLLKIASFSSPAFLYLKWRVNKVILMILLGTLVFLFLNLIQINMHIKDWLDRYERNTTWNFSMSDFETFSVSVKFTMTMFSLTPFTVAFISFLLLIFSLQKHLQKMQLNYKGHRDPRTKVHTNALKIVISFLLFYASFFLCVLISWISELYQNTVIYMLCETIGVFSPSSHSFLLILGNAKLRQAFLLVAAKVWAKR
Sequence of hT2R4 (Q9NYW5 whole entry): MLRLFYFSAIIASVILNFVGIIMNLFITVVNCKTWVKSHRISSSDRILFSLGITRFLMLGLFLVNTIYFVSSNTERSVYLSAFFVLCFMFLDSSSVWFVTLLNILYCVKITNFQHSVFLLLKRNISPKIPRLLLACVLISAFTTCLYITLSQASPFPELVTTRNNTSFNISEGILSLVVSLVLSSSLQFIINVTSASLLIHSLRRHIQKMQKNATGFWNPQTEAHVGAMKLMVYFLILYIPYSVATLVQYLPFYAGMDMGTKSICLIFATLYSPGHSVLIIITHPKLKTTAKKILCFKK
Sequence of hT2R75 (P59540 whole entry): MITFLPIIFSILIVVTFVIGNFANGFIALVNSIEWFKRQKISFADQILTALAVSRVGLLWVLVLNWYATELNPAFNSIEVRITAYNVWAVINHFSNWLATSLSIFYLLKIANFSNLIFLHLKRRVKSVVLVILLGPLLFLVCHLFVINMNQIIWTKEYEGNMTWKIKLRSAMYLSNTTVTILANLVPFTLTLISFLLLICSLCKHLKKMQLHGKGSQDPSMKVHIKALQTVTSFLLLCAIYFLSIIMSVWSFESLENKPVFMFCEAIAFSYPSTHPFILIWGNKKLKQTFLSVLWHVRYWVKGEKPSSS
Sequence of hT2R9 (Q9NYW1 whole entry): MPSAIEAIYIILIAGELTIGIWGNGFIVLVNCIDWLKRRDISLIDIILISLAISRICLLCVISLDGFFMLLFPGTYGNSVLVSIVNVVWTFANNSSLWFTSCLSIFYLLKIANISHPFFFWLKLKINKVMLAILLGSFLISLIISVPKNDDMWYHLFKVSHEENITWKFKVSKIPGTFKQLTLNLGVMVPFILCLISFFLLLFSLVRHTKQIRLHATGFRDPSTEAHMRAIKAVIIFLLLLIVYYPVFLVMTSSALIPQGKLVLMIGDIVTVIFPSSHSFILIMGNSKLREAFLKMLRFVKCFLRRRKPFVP
Sequence of hT2R51 (P59533 whole entry): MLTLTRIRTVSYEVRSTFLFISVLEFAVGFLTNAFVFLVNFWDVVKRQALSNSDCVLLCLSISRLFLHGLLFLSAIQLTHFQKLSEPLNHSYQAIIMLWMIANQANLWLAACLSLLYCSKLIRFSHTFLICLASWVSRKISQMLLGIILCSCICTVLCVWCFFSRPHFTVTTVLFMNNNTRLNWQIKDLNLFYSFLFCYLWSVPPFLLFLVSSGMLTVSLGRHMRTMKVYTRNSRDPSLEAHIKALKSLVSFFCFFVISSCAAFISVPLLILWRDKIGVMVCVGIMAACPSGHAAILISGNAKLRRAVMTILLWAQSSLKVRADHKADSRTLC

Compound	inhibition at 25 µM (hT2R14 [1]; [3])	inhibition at 25 µM (hT2R61; [4])	inhibition at 25 µM (hT2R64; [5])	inhibition at 25 µM (hT2R71)	inhibition at 25 µM (hT2R3; [6])	screening result against bitter receptor 54 (hT2R54)	inhibition at 25 µM (hT2R10)	inhibition at 25 µM (hT2R16)	screening result against bitter receptor 63 (hT2R63)	screening result against bitter receptor 55 (hT2R55)	inhibition at 25 µM (hT2R5; [7])	screening result against bitter receptor 44 (hT2R44)	also measured
COc1ccc(CN(Cc2ccc(OC)c(F)c2)S(=O)(=O)c2ccc(C(=O)O)cc2)cc1 [Example 5-41, 4-(N-(3-fluoro-4-methoxybenzyl)-N-(4-methoxybenzyl)sulfamoyl)-benzoic acid]	> 80%	> 80%	60 to 80%	40 to 60%	40 to 60%	+ (20% to 40% inhibition = +)	40 to 60%	20 to 40%	++++ (80% or greater inhibition = ++++)	+++ (60% to 80% inhibition = +++)	20 to 40%	+++ (60% to 80% inhibition = +++)	inhibition at 25 µM (hT2R13; receptor activated to EC80 with the corresponding agonist, read-out: screening result against bitter receptor 13): 20 to 40%; pIC50 (hT2R14 [2]; read-out: IC50 on hT2R14 bitter receptor): 5.95
COc1cccc(CN(Cc2ccc(C(=O)O)cc2)S(=O)(=O)c2ccccc2)c1 [Example 5-101, 4-((N-(3-methoxybenzyl)phenylsulfonamido)methyl) benzoic acid]	> 80%	> 80%	> 80%	60 to 80%	60 to 80%	++ (40% to 60% inhibition = ++)	60 to 80%	40 to 60%	+++ (60% to 80% inhibition = +++)	+++ (60% to 80% inhibition = +++)	40 to 60%	+++ (60% to 80% inhibition = +++)	inhibition at 25 µM (hT2R7; receptor activated to EC80 with the corresponding agonist, read-out: screening result against bitter receptor 7): 60 to 80%; inhibition at 25 µM (hT2R4): 40 to 60%; screening result against bitter receptor 67 (hT2R67): ++ (40% to 60% inhibition = ++); inhibition at 25 µM (hT2R9): 20 to 40%; screening result against bitter receptor 65 (hT2R65): +++ (60% to 80% inhibition = +++); inhibition at 25 µM (hT2R51): 40 to 60%; inhibition at 25 µM (hT2R75): 40 to 60%; pIC50 (hT2R14 [2]; Table C, read-out: hT2R14 IC50): 6.46
Cc1cc2c(cc1S(=O)(=O)Nc1ccc(F)cc1)n(C)c(=O)c(=O)n2C [Example 6-10, N-(4-fluorophenyl)-1,4,7-trimethyl-2,3-dioxo-1,2,3,4-tetrahydroquinoxaline-6-sulfonamide]	–	–	–	–	–	–	–	–	–	–	–	–	inhibition at 25 µM (hT2R14 [1]; receptor activated to EC80 with agonist, read-out: inhibition of bitter receptor 14): 40 to 60%; inhibition at 25 µM (hT2R61; receptor activated to EC80 with agonist, read-out: inhibition of bitter receptor 61): 20 to 40%; inhibition at 25 µM (hT2R64; receptor activated to EC80 with agonist, read-out: inhibition of bitter receptor 64): 20 to 40%; inhibition at 25 µM (hT2R3; receptor activated to EC80 with agonist, read-out: inhibition of bitter receptor 3): 20 to 40%; inhibition at 25 µM (hT2R7; receptor activated to EC80 with agonist, read-out: inhibition of bitter receptor 7): 20 to 40%; inhibition at 25 µM (hT2R13; receptor activated to EC80 with agonist, read-out: inhibition of bitter receptor 13): 40 to 60%; inhibition at 25 µM (hT2R5; receptor activated to EC80 with agonist, read-out: inhibition of bitter receptor 5): 20 to 40%; inhibition of bitter receptor 44 (hT2R44; receptor activated to EC80 with agonist): + (20% to 40% inhibition = +); pIC50 (hT2R14 [2]; Table D, read-out: hT2R14 IC50): 4.90
